Data set [1] deals with nitric oxide production from LPS-activated macrophages. The conditions noted are these: read-out: IC50 against nitric oxide production; cited from earlier work.
In data set [2] the test system is human monocytic THP-1. Description: MTT cytotoxicity assay on THP-1 cells. Format: cell-based. As to the method:
(§1) Cells lines including human monocytic THP-1, murine macrophage RAW 264.7 and the Vero monkey kidney cell lines were obtained from the American Type Culture Collection (Rockville, MD, USA). They were maintained in DMEM supplemented with 10 % fetal calf serum (FCS) and 1 % penicillin/streptomycin/fongizone (PSF) under standard cell culture conditions at 37 °C and 5 % CO2 in a humidified environment.
(§2) The cytotoxicity of compounds was determined by the 3-[4,5-dimethylthiazol-2-yl]-2,5-diphenyltetrazolium (MTT) assay as previously described. The selectivity index (SI) values were calculated by dividing cytotoxicity LC50 values of normal Vero cells by the LC50 of cancer cells in the same units.
(Tetrazolium assays rely on reduction of a dye to a coloured formazan, in cell work by metabolically active cells.)

The target in data set [3] is T1, acetylcholinesterase (AChE) enzyme from electric eels (Electrophorus electricus, UniProt O42275).
T1 construct: purchased Sigma (Germany) type VI-S lyophilized powder (catalogue number not given)
T1 sequence (O42275 24-633): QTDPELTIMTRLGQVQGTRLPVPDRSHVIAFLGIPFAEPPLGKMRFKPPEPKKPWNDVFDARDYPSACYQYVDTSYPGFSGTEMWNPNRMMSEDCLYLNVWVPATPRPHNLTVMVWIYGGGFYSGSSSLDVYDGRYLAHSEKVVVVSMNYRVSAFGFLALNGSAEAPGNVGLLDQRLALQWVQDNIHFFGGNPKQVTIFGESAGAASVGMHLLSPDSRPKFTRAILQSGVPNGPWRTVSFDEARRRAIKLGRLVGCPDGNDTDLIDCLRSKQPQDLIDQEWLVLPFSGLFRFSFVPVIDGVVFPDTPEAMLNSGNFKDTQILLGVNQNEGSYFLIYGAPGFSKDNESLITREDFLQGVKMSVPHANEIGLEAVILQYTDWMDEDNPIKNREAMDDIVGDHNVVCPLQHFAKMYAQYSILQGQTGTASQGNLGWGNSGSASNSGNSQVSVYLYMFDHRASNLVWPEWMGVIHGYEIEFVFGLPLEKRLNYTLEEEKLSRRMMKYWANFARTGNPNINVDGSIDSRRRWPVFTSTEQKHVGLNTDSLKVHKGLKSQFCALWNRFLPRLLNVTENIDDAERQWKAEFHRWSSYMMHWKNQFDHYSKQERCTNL
Description: biochemical. Particulars: for inhibition at 6.25 µg/mL / inhibition at 12.5 µg/mL / inhibition at 25 µg/mL / inhibition at 50 µg/mL: read-out: % AChE inhibition; for IC50: read-out: AChE inhibition IC50 (converted). How it is done:
Inhibition of acetylcholinesterase activity was determined using Ellman’s colorimetric method with slight modifications. […] Then, AChE (0.2 U/mL) was added to the wells and the absorbance was determined spectrophotometrically (BioTek Synergy microplate reader) at 405 nm. Distilled water was used as negative control. […] The IC50 values of samples leading to 50 % inhibition were calculated by plotting the percentage of inhibition against the concentrations.

The nature of data set [4]: MTT cytotoxicity assay on Vero cells. Particulars: monkey. Format: cell-based. How it is done: as §1, §2
The test system of data set [5] is murine macrophage RAW 264.7. The data set is described as follows: MTT cytotoxicity assay on RAW 264.7 cells. Format: cell-based. The conditions noted are these: Mus musculus. How it is done:
as §1, §2

Data set [6] deals with RAW 264.7 macrophages. The data set is described as follows: Cell viability of LPS-activated RAW 264.7 macrophages (MTT). It is filed as cell-based, murine. The conditions noted are these: Fig. 1b, at the concentration leading to effective inhibition of NO production. As to the method: To determine whether the observed nitric oxide inhibition was not due to cytotoxic effects, MTT assay was also performed on the macrophage cells as previously described.

Data set [7] deals with nitric oxide production in LPS-stimulated RAW 264.7 macrophages. Description: Nitric oxide production in LPS-activated RAW 264.7 macrophages (Griess reagent). Format: cell-based, murine. Particulars: 0.5 µg/mL compound, 1 µg/mL LPS, 24 h. How it is done: Fig. 1 Inhibitory activity of three limonoids isolated from Trichilia welwitschii on nitrix oxide production. The RAW 264.7 macrophages cells were seeded in 96 well-microtitre plates and were activated by incubation in medium containing 1 µg/mL LPS alone (control) or lipopolysaccharide with different concentrations of the samples dissolved in DMSO. Nitric oxide released from macrophages was determined by measuring the nitrite concentration in culture supernatant using the Griess reagent. The concentrations of nitrite were derived from regression analysis using serial dilutions of sodium nitrite as a standard. Percentage inhibition was calculated based on the ability of compounds to inhibit nitric oxide formation by cells compared with the control (cells in media without compounds), which was considered as 0 % inhibition.
The RAW 264.7 macrophages cells were seeded in 96 well-microtitre plates and were activated by incubation in medium containing 1 µg/mL LPS alone (control) or lipopolysaccharide with different concentrations of the samples dissolved in DMSO. […]
Nitric oxide released from macrophages was determined by measuring the nitrite concentration in culture supernatant using the Griess reagent. […] The absorbance of the resultant solutions was determined on a BioTek Synergy microplate reader after 10 min at 550 nm. […]
For orientation: Nitrite, measured by Griess reagent, commonly stands in for NO production.

Setting [8] is: THP-1, read-out: Cytotoxicity LC50 THP-1.
The mark [9] stands for this setting: Vero kidney cells, Vero cells, MTT, read-out: Cytotoxicity LC50 Vero.
The mark [10] stands for this setting: RAW264.7, read-out: Cytotoxicity LC50 RAW 264.7.
The mark [11] stands for this setting: human, mouse, THP-1 and RAW 264.7 cells (range over the cell lines), range over the cell lines tested (Vero, THP-1, RAW 264.7), read-out: LC50 values (range over the cell lines).
Setting [12] is: RAW264.7, RAW 264.7 cells, MTT, read-out: Cytotoxicity LC50 RAW 264.7.

Consider seven compounds from article PMC4604621, “Cytotoxicity, nitric oxide and acetylcholinesterase inhibitory activity of three limonoids isolated from Trichilia welwitschii (Meliaceae)” (Biological Research, 2015).

In brackets after ≈: the same amount, converted by molar mass. Like-named read-outs stand apart in the source and are kept apart here.

One may read the IC50 as the concentration at which inhibition is half-maximal. For orientation: inhibition means the share of the control response that was lost under treatment.

Regarding `CC[C@H](C)C(=O)O[C@H]1[C@@]23O[C@]4(O)[C@@](C)([C@@H](CC(=O)OC)C(C)(C)[C@H](OC(=O)C(C)C)[C@]14O)[C@H]2CC[C@]1(C)[C@H]3CC(=O)O[C@H]1c1ccoc1` [2-hydroxyxylorumphiin F], the IC50 in data set [1] was 24.5 µM.

Turning to `C=C1[C@@]23O[C@@H]2C[C@@H](c2ccoc2)[C@]3(C)[C@@H](OC(=O)C(O)C(C)CC)[C@H](C(=O)O)[C@]1(C)[C@](C)(C1CC(=O)O[C@]1(C)CO)[C@H](CC(=O)OC)OC(C)=O` (stereo partly drawn) [Compound 1, trichilia lactone D5], the CC50 in data set [2] (setting [8]) worked out at 81.2 ± 6.38 µg/mL (≈ 113 µM). In addition, in data set [3], the inhibition at 6.25 µg/mL was found to be 28 ± 6.56%, the inhibition at 12.5 µg/mL is 18 ± 8.89%, the inhibition at 25 µg/mL was found to be 71.7 ± 6.03% and the inhibition at 50 µg/mL worked out at 94.3 ± 8.15%. Moreover, the IC50 in data set [3] is 26.6 µM. Besides, the CC50 in data set [4] (setting [9]) is 89.2 ± 5 µg/mL (≈ 124 µM). In data set [5] (setting [10]), the CC50 is 23.6 ± 5.77 µg/mL (≈ 32.8 µM). In data set [6], the “Cytotoxicity against RAW 264.7 macrophages by MTT assay” value is reported as “slight toxic effect”.

Regarding `C=C1[C@@]2(O)C(=O)C[C@@H](c3ccoc3)[C@]2(C)[C@@H](OC(=O)C(O)C(C)CC)[C@@H]2O[C@H]3CC(=O)O[C@]4(C)COC(=O)CC4[C@@]3(C)[C@]12C` (stereo partly drawn) [Compound 2, rohituka 3], the CC50 in data set [2] (setting [8]) was 81.2 ± 4.04 µg/mL (≈ 132 µM). For the same compound, in data set [3], the inhibition at 6.25 µg/mL turned out to be 14 ± 6%, the inhibition at 12.5 µg/mL turned out to be 47.3 ± 2.08%, the inhibition at 25 µg/mL worked out at 67 ± 4.36% and the inhibition at 50 µg/mL is 82.7 ± 7.04%. The IC50 in data set [3] was 55.6 µM. Further, in data set [4] (setting [9]), the CC50 was 85.2 ± 6.31 µg/mL (≈ 139 µM). Also, the CC50 in data set [5] (setting [10]) turned out to be 65.7 ± 3.64 µg/mL (≈ 107 µM). For the same compound, in data set [7], the “Amount of nitric oxide released” value is given as 2.97 µM.

For `C=C1[C@@]23O[C@@H]2C[C@@H](c2ccoc2)[C@]3(C)[C@@H](OC(=O)C(O)C(C)CC)[C@@H]2O[C@H]3CC(=O)O[C@]4(C)COC(=O)CC4[C@@]3(C)[C@]12C` (stereo partly drawn) [Compound 3, dregeanin DM4], the CC50 in data set [2] (setting [8]) is 84.5 ± 5.81 µg/mL (≈ 141 µM). For the same compound, in data set [3], the inhibition at 6.25 µg/mL came to 30.3 ± 3.51%, the inhibition at 12.5 µg/mL was 31.7 ± 5.2%, the inhibition at 25 µg/mL is 70.7 ± 3.5% and the inhibition at 50 µg/mL was 87 ± 8.74%. Besides, the IC50 in data set [3] was 76.3 µM. For the same compound, in data set [4] (setting [9]), the CC50 worked out at 75.8 ± 1.85 µg/mL (≈ 127 µM). In addition, the CC50 in data set [5] (setting [10]) came to 61.9 ± 4.14 µg/mL (≈ 103 µM). For the same compound, in data set [7], the “Amount of nitric oxide released” value stood at 2.93 µM.

Consider `COc1cccc2c1C(=O)c1c(O)c3c(c(O)c1C2=O)C[C@@](O)(C(=O)CO)C[C@@H]3O[C@H]1C[C@H](N)[C@H](O)[C@H](C)O1` [Doxorubicin], for which the figures for the CC50 in data set [4] (setting [9]), in data set [4] (setting [11]) and in data set [5] (setting [12]) were 9.35 ± 0.66 µg/mL (≈ 17.2 µM), 1.06 to 9.35 µg/mL (≈ 1.95 to 17.2 µM) and 1.06 ± 0.65 µg/mL (≈ 1.95 µM), respectively.

Consider `COc1ccc(C[C@H](N)C(=O)N[C@H]2[C@@H](O)[C@H](n3cnc4c(N(C)C)ncnc43)O[C@@H]2CO)cc1` [Puromycin, reference compound], for which the CC50 in data set [2] (THP-1 cells, MTT, read-out: Cytotoxicity LC50 THP-1) was 0.4 ± 0.02 µg/mL (≈ 0.848 µM); in data set [4] (setting [9]), 5.32 ± 0.9 µg/mL (≈ 11.3 µM); in data set [4] (setting [11]), 1.15 to 5.32 µg/mL (≈ 2.44 to 11.3 µM); in data set [5] (setting [12]), 1.15 ± 0.17 µg/mL (≈ 2.44 µM).

Take `CC[C@H](C)C(=O)O[C@H]1C(C)(C)[C@H](CC(=O)OC)[C@@]2(C)[C@H]3CC[C@]4(C)C(=CC(=O)O[C@H]4c4ccoc4)[C@]34O[C@@]2(O)[C@@]1(O)[C@H]4OC(=O)[C@@H](C)CC` [xylorumphiin I]: the IC50 in data set [1] is 31.3 µM.
